One data set addresses CCRF-CEM cells (Homo sapiens, UniProt P61073). Conditions: read-out: IC50 (μM) Cell migration assay; CCRF-CEM cells migrating to 1 nM SDF-1, 4 hours.
In a further data set the target is T1, CXCR4 (Homo sapiens, UniProt P61073).
T1 construct: expressed in transfected cells
As to the kind of experiment: Ca2+ assay: CXCR4 antagonizing activity of the peptides. Conditions: CXCR4 transfected pre-B cells, Fura-2 fluorescence, 37° C. Type of data set: cell-based. On the procedure:
2.2. Ca^2+− assay: CXCR4Antagonizing Activity of the Peptides
3-4 Mio CXCR4 transfected pre-B cells [see references 1, 2 and 3, below] per measurement were resuspended in 200 μl MSB (20 mM 4-(2-Hyddroxyethyl)-piperazin-1-ethansulfonic acid (HEPES), 136 mM NaCl, 4.8 mM KCl and 1 mM CaCl2) containing 5 mM D-Glucose and were loaded with 0.75 μl of 1 mM Fura-2-acetoxymethylester for 17 minutes at 37° C. The cells were washed free from Fura-2-AM with a platelet centrifuge and resuspended in 800 R1 MSB containing 5 mM D-Glucose. The peptides to be administered were diluted to a 100 fold end concentration in MSB/0.2% PPL, and 8 pl were injected. [Ca^2+ ]i-dependent fluorescence change in response to single or sequential stimulation with the peptide was recorded with a fluorimeter at an excitation wavelength of 340 nm and an end emission wavelength of 510 nm [see ref. 4, below]. Measurements were done under continuous stirring at 37° C. The signal intension was calibrated with 3 mM4 CaCl2/1 nM lonomycin (maximal fura-2-acetoxymethylester saturation) and […] MnCl2 (minimal Fura-2-acetoxymethylester saturation) and [Ca^2+]i-changes are presented in % fura-2-acetoxymethylester saturation.
MSB: 20 nmM HEPES, 136 mM NaCl, 4.8 mM KCl, 1 mM CaCl2.2H2O, pH 7.4; Osmolarity: 310 mOsm adjusted with NaOH or HCl, adjusted with dH2O or PBS.
MSB plus: 5 mM D-glucose in MSB (50 mg/50 mL).
Fura 2-acetoxymethylester: 1 mM stock solution in dimethylsulfoxide.

Data set [1] deals with human red blood cells (hRBC). It is filed as cell-based. Conditions: red cells of human, 1 h. On the procedure: The peptides were tested for their hemolytic activity against human red blood cells (hRBC). Fresh hRBC were washed three times with phosphate buffered saline (PBS) by centrifugation for 10 min at 2000×g. Peptides at a concentration of 100 μM were incubated with 20% v/v hRBC for 1 hour at 37-C. The final erythrocyte concentration was approximately 0.9×10^9 cells per mL. A value of 0% resp. 100% cell lysis was determined by incubation of the hRBC in the presence of PBS alone and respectively 0.1% Triton X-100 in H2O. The samples were centrifuged and the supernatant was 20-fold diluted in PBS buffer and the optical density (OD) of the sample at […] was measured. The 100% lyses value (OD540H2O) gave an OD540 of approximately 1.3-1.8. Percent hemolysis was calculated as follows: (OD540peptide/OD540H2O)×100%.

A further data set is described as follows: in vitro. It is filed as cell-based. As for the experimental part: The cytotoxicity of the peptides to HELA cells (Acc57) and COS-7 cells (CRL-1651) was determined using the MTl reduction assay [see ref. 6 and 7, below]. Briefly the method was as follows: HELA cells and COS-7 cells were seeded at 7.0·10^3 and, respectively, 4.5·10^3 cells per well and grown in 96-well microtiter plates for 24 hours at 37° C. at 5% CO2. At this point, time zero (Tz) was determined by MTT reduction (see below). The supernatant of the remaining wells was discarded and fresh medium and the peptides in serial dilutions of 12.5, 25 and 50 μM were pipeted into the wells. Each peptide concentration was assayed in triplicate. Incubation of the cells was continued for 48 hours at 37° C. at 5% CO2. Wells were then washed once with PBS and subsequently 100 μl MTT reagent (0.5 mg/mL in medium RPMI1640 and, respectively, DMEM) was added to the wells. This was incubated at 37° C. for 2 hours and subsequently the medium was aspirated and 100 μl isopropanol was added to each well. The absorbance at 595 nm of the solubilized product was measured (OD595peptide). For each concentration averages were calculated from triplicates. The percentage of growth was calculated as follows: (OD595peptide-OD595Tz-OD595Empty well)/(OD595Tz-OD595Empty well)×100% and was plotted for each peptide concentration.
The LC 50 values (Lethal Concentration, defined as the concentration that kills 50% of the cells) were determined for each peptide by using the trend line function of EXCEL (Microsoft Office 2000) for the concentrations (50, 25, 12.5 and 0 μM), the corresponding growth percentages and the value −50, (=TREND(C50:C0,%50:%0,−50))
(§1) All fine chemicals came from Merck (D)armstadt, Germany).

Data set [2] relates to 'CCR5' cells / Hut/4-3 cells co-cultivation. Kind of data set: FIGS-Assay (co-cultivated cell cultures, beta-galactosidase/ONPG read-out). Conditions: at 200 nM; 48 hours of co-cultivation. It is filed as cell-based. On the procedure: The assay was performed according to ref. 5, below. Stock dilutions of the peptides (10 mM) were prepared by dissolving in 10 mM Tris-HCl at room temperature. Stock solutions were kept at +4° C., light protected. Working dilutions were prepared extemporaneously by serial dilution in Phosphate Buffered Saline (PBS) and added in a final volume of 10 μL directly to the cell cultures. After 48 hours of co-cultivation the cultures were rinsed with PBS and then exposed to glutaraldehyde/formaldehyde (0.2%/2%) in PBS for five minutes. For photometric quantification the fixed cultures were subsequently incubated with ortho-nitro-phenyl-galactopyranoside (ONPG) as a O-galactosidase substrate, which was enzymatically converted into the chromophore ortho-nitrophenol (ONP). The read out is directly obtained by measuring optical density of wells at 405 nm in an IEMS 96 well-plate reader.
as §1

This note sets out measurements from patent US7838496B2, “Template-fixed peptidomimetics as medicaments against HIV and cancer” (Polyphor AG/Ltd., priority 2003, dated 2010).

*1 amine or outer side, *2 acyl side, *3 side chain or, on linkers, in order; H or OH if unused. Where a SMILES comes first, the peptide text is derived from it. Bridges are numbered along the chain shown (N, C = ends). [ ]: non-standard residue; d: D form. NHCH2(1,3-C6H4)CH2CO = O=C(Cc1cccc(CN[*:1])c1)[*:2]; Phe(4-NH2) = Nc1ccc(C[C@H](N)C(=O)O)cc1; 2Nal = N[C@@H](Cc1ccc2ccccc2c1)C(=O)O; Cit = NC(=O)NCCC[C@H](N)C(=O)O; Gly(N(CH2)3NH2) = NCCCNCC(=O)O; Nlys = NCCCCNCC(=O)O

T1 sequence (P61073 whole entry): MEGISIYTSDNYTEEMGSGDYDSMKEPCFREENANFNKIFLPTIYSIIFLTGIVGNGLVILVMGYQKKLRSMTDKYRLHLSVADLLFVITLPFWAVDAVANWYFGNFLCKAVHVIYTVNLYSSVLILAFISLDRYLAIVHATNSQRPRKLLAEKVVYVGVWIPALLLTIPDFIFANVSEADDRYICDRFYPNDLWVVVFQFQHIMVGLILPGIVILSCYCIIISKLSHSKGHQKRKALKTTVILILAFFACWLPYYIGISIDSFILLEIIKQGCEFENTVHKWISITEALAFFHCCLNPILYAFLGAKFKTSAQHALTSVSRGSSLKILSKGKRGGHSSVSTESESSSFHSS
Sequence of CCRF-CEM cells (P61073 whole entry): as above
Description for CCRF-CEM cells: BELA cells and CCRF-CEM cells were maintained in RPMI1640 plus 5% FBS, Pen/Strept and 2 mM L-Glutamine. […] All cell lines were grown at 37° C. at 5% CO2. Cell media, media supplements, PBS-buffer, HEPES, Pen/Strept., L-Glutamine and sera were purchased from Gibco (Pailsey, UK). All fine chemicals came from Merck (D)armstadt, Germany).
Chemotactic Assay (Cell Migration Assay)
The chemotactic response of CCRF-CEM cells to a gradient of stromal cell-derived factor 1 a (SDF-1) was measured using disposable assay plates from Neuroprobe (5 μ pore size) (Gaithersburg, Md.), according to the manufacturer's directions and references therein [especially ref. 8, below]. Briefly, one 175 cm^2 flask was washed once with Dubecco's phosphate buffered saline (DPBS), and trypsinized for 10 minutes or until cells had lifted. The trypsin was neutralized by the addition of fresh medium containing serum and the cells were pelleted, washed once in DPBS, and resuspended at 1-0.5×10^7 cells/ml in RPM!+0.5% bovine serum albumin (BSA). 451 μl of cell suspension were mixed with 5μ of 10-fold concentrated PEM peptide diluted in the same assay medium. 35 μl of this mixture were applied to the top of the assay filter. The cells were allowed to migrate (at 37°) into the bottom chamber of the assay plate containing 1 nM SDF-1. After 4 hours, the filter was removed and MTT was added to the migrated cells to a final concentration of 0.5 mg/ml, and incubated for a further 4 hours. After labeling with MTT, all medium was removed and 100 μl of isopropanol+10 mM HCl were added to the cells. The optical absorbance at 595 nm (ABS595) was read using a Tecan Genios plate reader with Magellan software. The number of cells migrated was determined by comparing ABS595 values against a standard curve generated with a known number of cells in the assay plate and were plotted against SDF-1 concentration to obtain a sigmoidal curve and to determine the IC50 values. The values for IC50 were determined using the Trendline function in Microsoft Excel by fitting a logarithmic curve to the averaged datapoints.

In the case of `N=C(N)NCCC[C@H](NC(=O)[C@@H]1CSSC[C@H](NC(=O)[C@H](Cc2ccc3ccccc3c2)NC(=O)[C@H](CCCNC(=N)N)NC(=O)CNCCCCN)C(=O)N[C@@H](Cc2ccc(O)cc2)C(=O)N[C@@H](CCCNC(N)=O)C(=O)N[C@@H](CCCCN)C(=O)N2CCC[C@@H]2C(=O)N2CCC[C@H]2C(=O)N[C@@H](Cc2ccc(O)cc2)C(=O)N[C@@H](CCCNC(=N)N)C(=O)N[C@@H](CCCNC(N)=O)C(=O)N1)C(N)=O` [Example 16] (H-[Nlys]R[2Nal]CY[Cit]K[dP]PYR[Cit]CR-NH2; disulfide 4-13), on CCRF-CEM cells, the IC50 is 1.04 µM.
For the molecule `N=C(N)NCCC[C@H](NC(=O)[C@@H]1CSSC[C@H](NC(=O)[C@H](Cc2ccc3ccccc3c2)NC(=O)[C@H](CCCNC(=N)N)NC(=O)CNCCCN)C(=O)N[C@@H](Cc2ccc(O)cc2)C(=O)N[C@@H](CCCNC(N)=O)C(=O)N[C@@H](CCCCN)C(=O)N2CCC[C@@H]2C(=O)N2CCC[C@H]2C(=O)N[C@@H](Cc2ccc(O)cc2)C(=O)N[C@@H](CCCNC(=N)N)C(=O)N[C@@H](CCCNC(N)=O)C(=O)N1)C(N)=O` [Example 15] (H-[Gly(N(CH2)3NH2)]R[2Nal]CY[Cit]K[dP]PYR[Cit]CR-NH2; disulfide 4-13), the IC50 on CCRF-CEM cells came to 0.57 µM.
Take `N=C(N)NCCC[C@@H](N)C(=O)N[C@@H](CCCNC(=N)N)C(=O)N[C@@H](Cc1ccc2ccccc2c1)C(=O)N[C@H]1CSSC[C@@H](C(=O)N[C@@H](CCCNC(=N)N)C(N)=O)NC(=O)[C@H](CCCNC(N)=O)NC(=O)[C@H](CCCNC(=N)N)NC(=O)[C@H](Cc2ccc(O)cc2)NC(=O)[C@@H]2CCCN2C(=O)[C@H]2CCCN2C(=O)[C@H](CCCCN)NC(=O)[C@H](CCCNC(N)=O)NC(=O)[C@H](Cc2ccc(O)cc2)NC1=O` [Example 10] (H-[dR]R[2Nal]CY[Cit]K[dP]PYR[Cit]CR-NH2; disulfide 4-13): the IC50 against CXCR4 is 21.5 nM; on CCRF-CEM cells, 0.55 µM. For the same molecule, the “Hemolysis at 100 μM” value in data set [1] is 0.6%. In addition, the CC50 at 48 h in the data set “in vitro” stood at 118000 nM. In data set [2], the “FIGS % inhibition at 200 nM” value is given as 82.0%.
`CC(=O)N[C@@H](CCCNC(=N)N)C(=O)N[C@@H](CCCNC(=N)N)C(=O)N[C@@H](Cc1ccc2ccccc2c1)C(=O)N[C@H]1CSSC[C@@H](C(=O)N[C@@H](CCCNC(=N)N)C(N)=O)NC(=O)[C@H](CCCNC(N)=O)NC(=O)[C@H](CCCNC(=N)N)NC(=O)[C@H](Cc2ccc(O)cc2)NC(=O)[C@@H]2CCCN2C(=O)[C@H]2CCCN2C(=O)[C@H](CCCCN)NC(=O)[C@H](CCCNC(N)=O)NC(=O)[C@H](Cc2ccc(O)cc2)NC1=O` [Example 8] (Ac-RR[2Nal]CY[Cit]K[dP]PYR[Cit]CR-NH2; disulfide 4-13): the IC50 on CXCR4 is 13.9 nM; at CCRF-CEM cells, 5 µM. For the same molecule, in data set [1], the “Hemolysis at 100 μM” value is listed as 0.1%. This molecule gave a CC50 at 48 h in “in vitro” of 226000 nM. For the same molecule, in data set [2], the “FIGS % inhibition at 200 nM” value worked out at 90.6%.
Taken in the same sequence, the figures for `N=C(N)NCCC[C@H](NC(=O)[C@@H]1CSSC[C@H](NC(=O)[C@H](Cc2ccc(N)cc2)NC(=O)[C@H](CCCNC(=N)N)NC(=O)[C@@H](N)CCCNC(=N)N)C(=O)N[C@@H](Cc2ccc(O)cc2)C(=O)N[C@@H](CCCNC(N)=O)C(=O)N[C@@H](CCCCN)C(=O)N2CCC[C@@H]2C(=O)N2CCC[C@H]2C(=O)N[C@@H](Cc2ccc(O)cc2)C(=O)N[C@@H](CCCNC(=N)N)C(=O)N[C@@H](CCCNC(N)=O)C(=O)N1)C(N)=O` [Example 12] (H-RR[Phe(4-NH2)]CY[Cit]K[dP]PYR[Cit]CR-NH2; disulfide 4-13) were 13.9 nM, 5 µM, 0.1%, 226000 nM and 71.3%.
On to `N=C(N)NCCC[C@H](NC(=O)[C@@H]1CSSC[C@H](NC(=O)[C@H](Cc2ccc3ccccc3c2)NC(=O)[C@H](CCCNC(=N)N)NC(=O)[C@@H](N)CCCNC(=N)N)C(=O)N[C@@H](Cc2ccc(O)cc2)C(=O)N[C@@H](CCCNC(N)=O)C(=O)N[C@@H](CCCCN)C(=O)N2CCC[C@@H]2C(=O)N2CCC[C@H]2C(=O)N[C@@H](Cc2ccc(O)cc2)C(=O)N[C@@H](CCCNC(=N)N)C(=O)N[C@@H](CCCNC(N)=O)C(=O)N1)C(N)=O` [Example 7] (H-RR[2Nal]CY[Cit]K[dP]PYR[Cit]CR-NH2; disulfide 4-13; N-terminus assumed), for which the “Hemolysis at 100 μM” value in data set [1] is 0.3%. The CC50 in “in vitro” was found to be 56000 nM. For the same molecule, the IC50 on CCRF-CEM cells was 0.55 µM.
On CXCR4, `N=C(N)NCCC[C@H](NC(=O)[C@@H]1CSSC[C@H](NC(=O)[C@H](Cc2ccc3ccccc3c2)NC(=O)[C@H](CCCNC(=N)N)NC(=O)[C@@H](N)CCCNC(=N)N)C(=O)N[C@@H](Cc2ccc(O)cc2)C(=O)N[C@@H](CCCNC(=N)N)C(=O)N2CCC[C@@H]2C(=O)N2CCC[C@H]2C(=O)N[C@@H](Cc2ccc(O)cc2)C(=O)N[C@@H](CCCNC(=N)N)C(=O)N1)C(N)=O` [Example 5] (H-RR[2Nal]CYR[dP]PYRCR-NH2; disulfide 4-11; N-terminus assumed) had an IC50 of 132 nM. In addition, in data set [1], the “Hemolysis at 100 μM” value is 0.7%. This molecule also displayed a CC50 at 48 h in “in vitro” of 67000 nM. For the same molecule, the “FIGS % inhibition at 200 nM” value in data set [2] is on record as 16.4%.
In the case of `N=C(N)NCCC[C@H](NC(=O)[C@@H]1CSSC[C@H](NC(=O)[C@H](Cc2ccc3ccccc3c2)NC(=O)[C@H](CCCNC(=N)N)NC(=O)[C@@H](N)CCCNC(=N)N)C(=O)N[C@@H](Cc2ccc(O)cc2)C(=O)N[C@@H](CCCCN)C(=O)N2CCC[C@@H]2C(=O)N2CCC[C@H]2C(=O)N[C@@H](Cc2ccc(O)cc2)C(=O)N[C@@H](CCCNC(=N)N)C(=O)N1)C(N)=O` [Example 4] (H-RR[2Nal]CYK[dP]PYRCR-NH2; disulfide 4-11; N-terminus assumed), at CXCR4, the IC50 is 848 nM. The “Hemolysis at 100 μM” value in data set [1] was determined as 0.3%. The CC50 at 48 h in “in vitro” is over 300000 nM. In data set [2], the “FIGS % inhibition at 200 nM” value is 26.0%.
Taken in the same sequence, the figures for `N=C(N)NCCC[C@H](NC(=O)[C@@H]1CSSC[C@H](NC(=O)[C@H](Cc2ccc3ccccc3c2)NC(=O)[C@H](CCCNC(=N)N)NC(=O)[C@@H](N)CCCNC(=N)N)C(=O)N[C@@H](Cc2ccc(O)cc2)C(=O)N[C@@H](CCCNC(N)=O)C(=O)N[C@@H](CCCCN)C(=O)NCc2cccc(c2)CC(=O)N[C@@H](Cc2ccc(O)cc2)C(=O)N[C@@H](CCCNC(=N)N)C(=O)N[C@@H](CCCNC(N)=O)C(=O)N1)C(N)=O` [Example 22] (H-RR[2Nal]CY[Cit]K[NHCH2(1,3-C6H4)CH2CO]YR[Cit]CR-NH2; disulfide 4-12) were 80.3 nM, 0.1%, 75000 nM and 22.5%.
